Data reported in patent publication US20230085307A1, “PYRIDAZINONE COMPOUND AND HERBICIDE” (NISSAN CHEMICAL CORPORATION, priority 2019, published 2023).

What was measured:
barnyard grass [1] = assay: Test Example 3: herbicidal effect by foliage application, Wagner pot (Table 18, symbol H); format: in vivo, barnyard grass (Echinochloa crus-galli); details: 320 g/ha
Procedure, shortened: (§1)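 Plants were sown in alluvial soil held under 0.1–0.5 cm standing water and grown 14 days in a greenhouse at 25–30 °C. An emulsifiable formulation, water-diluted to the set dose, was then sprayed onto the foliage, and effects were scored three weeks later using previously defined criteria.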

Japanese bulrush [2] = assay: Test Example 2: herbicidal activity, application during weed generation under submerged conditions (Table 17, symbol B); format: in vivo, Japanese bulrush (Schoenoplectus juncoides); details: AAH 320 g/ha; application during weed generation, submerged conditions
Protocol: (§2) [Test Example 2] Herbicidal Activity Test by Application during Weed Generation under Submerged Conditions After alluvial soil was placed into 1/10000 are of Wagner pot, water was poured and mixed to form a submerged condition having a water depth of 4 cm. Seeds of late watergrass, Japanese bulrush, and oval-leafed pondweed were sowed in a mixed manner in the aforementioned pot, and the pot was placed in a greenhouse at 25° C. to 30° C. for growth of the plants. When late watergrass, Japanese bulrush, and oval-leafed pondweed were grown to one leaf stage to two leaf stage, the emulsion agent of the compound of the present invention prepared according to Formulation Example 2 was diluted with water so as to achieve a predetermined herbicide amount, and the diluted emulsion agent was applied to the surface of the water. Three weeks after the herbicide application, the effect of the herbicide on each plant was evaluated according to the criteria of Test Example 1.

late watergrass [3] = assay: Test Example 2: herbicidal activity, application during weed generation under submerged conditions (Table 17, symbol A); format: in vivo, late watergrass (Echinochloa oryzicola); details: AAH 320 g/ha; application during weed generation, submerged conditions
Protocol: as §2

rice flat sedge = assay: Test Example 3: herbicidal effect by foliage application, Wagner pot (Table 18, symbol E); format: in vivo, rice flat sedge (Cyperus iria); details: 320 g/ha
Procedure, shortened: as §1

oval-leafed pondweed [4] = assay: Test Example 2: herbicidal activity, application during weed generation under submerged conditions (Table 17, symbol C); format: in vivo, oval-leafed pondweed (Monochoria vaginalis); details: AAH 320 g/ha; application during weed generation, submerged conditions
Protocol: as §2

Chinese sprangletop = assay: Test Example 3: herbicidal effect by foliage application, Wagner pot (Table 18, symbol D); format: in vivo, chinese sprangletop (Leptochloa chinensis); details: 320 g/ha
Procedure, shortened: as §1

southern crabgrass [5] = assay: Test Example 5: herbicidal effect by foliage application, plastic box (Table 20, symbol F); format: in vivo, southern crabgrass (Digitaria ciliaris); details: foliage application, 320 g/ha, 3 weeks after application
Procedure, shortened: (§3)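 Sow seeds spot-wise in sterilized diluvial soil; cover with ~1.5 cm soil. Grow 14 days in greenhouse, 25° C. to 30° C. Spray foliage with emulsion diluted to predetermined amount. Rate effect after 3 weeks.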

persian speedwell [6] = assay: Test Example 4: herbicidal effect by soil treatment (Table 19, symbol R); format: in vivo, Persian speedwell (Veronica persica); details: AAH 320 g/ha
Procedure, shortened: (§4)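 Soil-surface application: an emulsion agent diluted with water to the predetermined dose is sprayed uniformly over seeds lying under roughly 1.5 cm of sterilized diluvial soil. Boxes stay in a greenhouse at 25° C. to 30° C. Three weeks later, each species is graded on previously defined criteria.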

blackgrass [7] = assay: Test Example 4: herbicidal effect by soil treatment (Table 19, symbol J); format: in vivo, blackgrass (Alopecurus myosuroides); details: AAH 320 g/ha
Procedure, shortened: as §4

late watergrass [8] = assay: Test Example 1: herbicidal activity, application before weed generation under submerged conditions (Table 16, symbol A); format: in vivo, late watergrass (Echinochloa oryzicola); details: 320 g/ha applied herbicide
Procedure, shortened: (§5)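 Submerged Wagner pots (alluvial soil, 4 cm water) sown with weed seeds and planted with 2.5-leaf rice seedlings; emulsifiable concentrate diluted in water applied to water surface on sowing day. Held in greenhouse at 25-30 °C; injury scored 0-5 by herbicidal rate after three weeks.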

Italian ryegrass [9] = assay: Test Example 5: herbicidal effect by foliage application, plastic box (Table 20, symbol K); format: in vivo, Italian ryegrass (Lolium multiflorum); details: foliage application, 320 g/ha, 3 weeks after application
Procedure, shortened: as §3

persian speedwell [10] = assay: Test Example 5: herbicidal effect by foliage application, plastic box (Table 20, symbol R); format: in vivo, Persian speedwell (Veronica persica); details: foliage application, 320 g/ha, 3 weeks after application
Procedure, shortened: as §3

redroot pigweed = assay: Test Example 4: herbicidal effect by soil treatment (Table 19, symbol N); format: in vivo, redroot pigweed (Amaranthus retroflexus); details: AAH 320 g/ha
Procedure, shortened: as §4

southern crabgrass [11] = assay: Test Example 4: herbicidal effect by soil treatment (Table 19, symbol F); format: in vivo, southern crabgrass (Digitaria ciliaris); details: AAH 320 g/ha
Procedure, shortened: as §4

velvetleaf [12] = assay: Test Example 5: herbicidal effect by foliage application, plastic box (Table 20, symbol M); format: in vivo, velvetleaf (Abutilon theophrasti); details: foliage application, 320 g/ha, 3 weeks after application
Procedure, shortened: as §3

barnyard grass [13] = assay: Test Example 4: herbicidal effect by soil treatment (Table 19, symbol H); format: in vivo, barnyard grass (Echinochloa crus-galli); details: AAH 320 g/ha
Procedure, shortened: as §4

green foxtail [14] = assay: Test Example 4: herbicidal effect by soil treatment (Table 19, symbol G); format: in vivo, green foxtail (Setaria viridis); details: AAH 320 g/ha
Procedure, shortened: as §4

chickweed = assay: Test Example 4: herbicidal effect by soil treatment (Table 19, symbol P); format: in vivo, common chickweed (Stellaria media); details: AAH 320 g/ha
Procedure, shortened: as §4

wild oat [15] = assay: Test Example 5: herbicidal effect by foliage application, plastic box (Table 20, symbol I); format: in vivo, wild oat (Avena fatua); details: foliage application, 320 g/ha, 3 weeks after application
Procedure, shortened: as §3

wild oat [16] = assay: Test Example 4: herbicidal effect by soil treatment (Table 19, symbol I); format: in vivo, wild oat (Avena fatua); details: AAH 320 g/ha
Procedure, shortened: as §4

green foxtail [17] = assay: Test Example 5: herbicidal effect by foliage application, plastic box (Table 20, symbol G); format: in vivo, green foxtail (Setaria viridis); details: foliage application, 320 g/ha, 3 weeks after application
Procedure, shortened: as §3

lambsquarters [18] = assay: Test Example 4: herbicidal effect by soil treatment (Table 19, symbol O); format: in vivo, lambsquarters (Chenopodium album); details: AAH 320 g/ha
Procedure, shortened: as §4

lambsquarters [19] = assay: Test Example 5: herbicidal effect by foliage application, plastic box (Table 20, symbol O); format: in vivo, lambsquarters (Chenopodium album); details: foliage application, 320 g/ha, 3 weeks after application
Procedure, shortened: as §3

Italian ryegrass [20] = assay: Test Example 4: herbicidal effect by soil treatment (Table 19, symbol K); format: in vivo, Italian ryegrass (Lolium multiflorum); details: AAH 320 g/ha
Procedure, shortened: as §4

velvetleaf [21] = assay: Test Example 4: herbicidal effect by soil treatment (Table 19, symbol M); format: in vivo, velvetleaf (Abutilon theophrasti); details: AAH 320 g/ha
Procedure, shortened: as §4

blackgrass [22] = assay: Test Example 5: herbicidal effect by foliage application, plastic box (Table 20, symbol J); format: in vivo, blackgrass (Alopecurus myosuroides); details: foliage application, 320 g/ha, 3 weeks after application
Procedure, shortened: as §3

Japanese bulrush [23] = assay: Test Example 1: herbicidal activity, application before weed generation under submerged conditions (Table 16, symbol B); format: in vivo, Japanese bulrush (Schoenoplectus juncoides); details: 320 g/ha applied herbicide
Procedure, shortened: as §5

barnyard grass [24] = assay: Test Example 5: herbicidal effect by foliage application, plastic box (Table 20, symbol H); format: in vivo, barnyard grass (Echinochloa crus-galli); details: foliage application, 320 g/ha, 3 weeks after application
Procedure, shortened: as §3

oval-leafed pondweed [25] = assay: Test Example 1: herbicidal activity, application before weed generation under submerged conditions (Table 16, symbol C); format: in vivo, oval-leafed pondweed (Monochoria vaginalis); details: 320 g/ha applied herbicide
Procedure, shortened: as §5

## COC(=O)COc1ccc(-c2sc3ccccc3c2-c2c(O)c(C)nn(C)c2=O)cc1 [1-232]
Barnyard grass [1]
  herbicidal effect on H (barnyard grass), rating 0-5: 3 (Herbicidal rate of 40% or more and less than 70%)
Japanese bulrush [2]
  herbicidal effect rating, B: Japanese bulrush: 0 (Herbicidal rate of 5% or less (almost no effect))
Late watergrass [3]
  herbicidal effect rating, A: late watergrass: 3 (Herbicidal rate of 40% or more and less than 70%)
Rice flat sedge
  herbicidal effect on E (rice flat sedge), rating 0-5: 3 (Herbicidal rate of 40% or more and less than 70%)
oval-leafed pondweed [4]
  herbicidal effect rating, C: oval-leafed pondweed: 0 (Herbicidal rate of 5% or less (almost no effect))
Chinese sprangletop
  herbicidal effect on D (Chinese sprangletop), rating 0-5: 3 (Herbicidal rate of 40% or more and less than 70%)

## C=CCOCc1ccc(-c2sc3ccccc3c2-c2c(O)c(C)nn(C)c2=O)cc1 [1-241]
Southern crabgrass [5]
  effect on southern crabgrass (F): 2 (Herbicidal rate of 20% or more and less than 40%)
Barnyard grass [1]
  herbicidal effect on H (barnyard grass), rating 0-5: 5 (Herbicidal rate of 90% or more (almost completely withered))
Persian speedwell [6]
  R: persian speedwell, herbicidal effect rating: 5 (Herbicidal rate of 90% or more (almost completely withered))
Japanese bulrush [2]
  herbicidal effect rating, B: Japanese bulrush: 3 (Herbicidal rate of 40% or more and less than 70%)
Late watergrass [3]
  herbicidal effect rating, A: late watergrass: 3 (Herbicidal rate of 40% or more and less than 70%)
Blackgrass [7]
  J: blackgrass, herbicidal effect rating: 2 (Herbicidal rate of 20% or more and less than 40%)
Rice flat sedge
  herbicidal effect on E (rice flat sedge), rating 0-5: 4 (Herbicidal rate of 70% or more and less than 90%)
Late watergrass [8]
  Herbicidal effect on A: late watergrass (grade 0-5): 0 (Herbicidal rate of 5% or less (almost no effect))
Italian ryegrass [9]
  effect on Italian ryegrass (K): 5 (Herbicidal rate of 90% or more (almost completely withered))
Persian speedwell [10]
  effect on persian speedwell (R): 5 (Herbicidal rate of 90% or more (almost completely withered))
Redroot pigweed
  N: redroot pigweed, herbicidal effect rating: 5 (Herbicidal rate of 90% or more (almost completely withered))
Southern crabgrass [11]
  F: southern crabgrass, herbicidal effect rating: 1 (Herbicidal rate of 5% or more and less than 20%)
Velvetleaf [12]
  effect on velvetleaf (M): 5 (Herbicidal rate of 90% or more (almost completely withered))
Barnyard grass [13]
  H: barnyard grass, herbicidal effect rating: 3 (Herbicidal rate of 40% or more and less than 70%)
Green foxtail [14]
  G: green foxtail, herbicidal effect rating: 3 (Herbicidal rate of 40% or more and less than 70%)
chickweed
  P: chickweed, herbicidal effect rating: 3 (Herbicidal rate of 40% or more and less than 70%)
Wild oat [15]
  effect on wild oat (I): 0 (Herbicidal rate of 5% or less (almost no effect))
Wild oat [16]
  I: wild oat, herbicidal effect rating: 0 (Herbicidal rate of 5% or less (almost no effect))
Green foxtail [17]
  effect on green foxtail (G): 5 (Herbicidal rate of 90% or more (almost completely withered))
Lambsquarters [18]
  O: lambsquarters, herbicidal effect rating: 4 (Herbicidal rate of 70% or more and less than 90%)
Lambsquarters [19]
  effect on lambsquarters (O): 4 (Herbicidal rate of 70% or more and less than 90%)
Italian ryegrass [20]
  K: Italian ryegrass, herbicidal effect rating: 3 (Herbicidal rate of 40% or more and less than 70%)
Velvetleaf [21]
  M: velvetleaf, herbicidal effect rating: 0 (Herbicidal rate of 5% or less (almost no effect))
Blackgrass [22]
  effect on blackgrass (J): 3 (Herbicidal rate of 40% or more and less than 70%)
Chinese sprangletop
  herbicidal effect on D (Chinese sprangletop), rating 0-5: 3 (Herbicidal rate of 40% or more and less than 70%)
Japanese bulrush [23]
  Herbicidal effect on B: Japanese bulrush (grade 0-5): 3 (Herbicidal rate of 40% or more and less than 70%)
Barnyard grass [24]
  effect on barnyard grass (H): 4 (Herbicidal rate of 70% or more and less than 90%)
oval-leafed pondweed [25]
  Herbicidal effect on C: oval-leafed pondweed (grade 0-5): 2 (Herbicidal rate of 20% or more and less than 40%)
